The source made the active and inactive calls.
Columns and labels:
H9c2 = experiment: cells; type: functional, cell-based; conditions: Rattus norvegicus, H9c2, Myocardium
[1] = target: Induced myeloid leukemia cell differentiation protein Mcl-1 (Homo sapiens, UniProt Q07820); type: functional
[2] = Luminescence Cell-Based Dose Retest to Confirm Inhibitors of Cancer Stem Cells. [Related pubchem assays (depositor defined):AID2717, AID2721]; type: functional; conditions: Homo sapiens
[3] = viability of uninfected HEp-2 cells – cell-based, HTS, cytotoxicity control for RSV inhibitor project, dose response (AID 2410); type: functional; conditions: human respiratory syncytial virus
[4] = luciferase reporter signal suppression in cells – H4 neuroglioma cells, luminescence, dose response (AID 1990); type: functional, cell-based
Streptococcus = experiment: GAS UMAA2166 growth inhibition – luminescence, BacTiterGlo, counter-screen for streptokinase expression inhibitor project, dose response (AID 1915); type: functional, organism-based;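 further: potency for reduction of bacterial viability or growth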
[5] = Luminescence Cell-Based Dose Response HTS to Identify Inhibitors of 5'UTR Stem-Loop Driven Prion Protein mRNA Translation in H4 Neuroglioblastoma Cells. [Related pubchem assays: 1827 (Project Summary), 1813 (Primary HTS)]; type: functional
[6] = alpha-synuclein stem-loop luciferase translation blockers – H4 neuroglioma cells, luminescence, confirmation (AID 1988); type: functional, cell-based
[7] = test system: Streptococcus sp. 'group A'; experiment: Streptococcus pyogenes SK(-)GAS viability under kanamycin – luminescence, BacTiterGlo, confirmation, counter-screen for streptokinase expression inhibitor project, dose response (AID 1900); type: functional, organism-based
INS1 = experiment: INS-1E survival protection against cytokine death – cell-based, luminescence, retest, dose response (AID 449756); type: functional; conditions: Rattus norvegicus;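 further: cell death triggered by IL-1 beta plus TNF-alpha plus IFN-gamma mixture; protective hits raise ATP signal compared with cytokine alone wells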
Large T antigen = Large T antigen (Simian virus 40, UniProt P03070); type: functional, Betapolyomavirus macacae;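 further: Confirmatory-stage PubChem screen for compounds that inhibit SV40 T antigen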
Chain of Large T antigen (P03070 whole entry): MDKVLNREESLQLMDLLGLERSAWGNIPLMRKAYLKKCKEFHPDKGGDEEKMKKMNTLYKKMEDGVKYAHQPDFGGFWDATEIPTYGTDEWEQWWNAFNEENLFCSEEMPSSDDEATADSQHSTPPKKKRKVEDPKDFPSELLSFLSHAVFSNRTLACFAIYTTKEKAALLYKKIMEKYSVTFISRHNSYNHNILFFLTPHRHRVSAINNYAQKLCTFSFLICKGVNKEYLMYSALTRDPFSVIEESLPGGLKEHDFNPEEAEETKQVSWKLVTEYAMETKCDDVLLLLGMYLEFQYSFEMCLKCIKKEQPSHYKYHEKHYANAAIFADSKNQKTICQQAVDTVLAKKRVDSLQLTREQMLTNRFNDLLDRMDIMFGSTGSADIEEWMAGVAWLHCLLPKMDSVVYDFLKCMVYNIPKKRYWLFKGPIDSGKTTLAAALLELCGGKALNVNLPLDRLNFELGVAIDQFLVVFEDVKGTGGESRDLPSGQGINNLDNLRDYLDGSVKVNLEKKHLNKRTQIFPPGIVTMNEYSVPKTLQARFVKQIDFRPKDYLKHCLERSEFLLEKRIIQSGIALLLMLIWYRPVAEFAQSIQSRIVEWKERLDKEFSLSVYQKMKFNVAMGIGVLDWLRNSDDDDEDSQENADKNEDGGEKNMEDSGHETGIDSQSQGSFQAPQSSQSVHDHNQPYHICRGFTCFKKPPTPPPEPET

Cytochrome P450 2D6 = Cytochrome P450 2D6 (Homo sapiens, UniProt P10635);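 further: CYP2D6 member of a cytochrome P450 panel assay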
Chain of Cytochrome P450 2D6 (P10635 whole entry): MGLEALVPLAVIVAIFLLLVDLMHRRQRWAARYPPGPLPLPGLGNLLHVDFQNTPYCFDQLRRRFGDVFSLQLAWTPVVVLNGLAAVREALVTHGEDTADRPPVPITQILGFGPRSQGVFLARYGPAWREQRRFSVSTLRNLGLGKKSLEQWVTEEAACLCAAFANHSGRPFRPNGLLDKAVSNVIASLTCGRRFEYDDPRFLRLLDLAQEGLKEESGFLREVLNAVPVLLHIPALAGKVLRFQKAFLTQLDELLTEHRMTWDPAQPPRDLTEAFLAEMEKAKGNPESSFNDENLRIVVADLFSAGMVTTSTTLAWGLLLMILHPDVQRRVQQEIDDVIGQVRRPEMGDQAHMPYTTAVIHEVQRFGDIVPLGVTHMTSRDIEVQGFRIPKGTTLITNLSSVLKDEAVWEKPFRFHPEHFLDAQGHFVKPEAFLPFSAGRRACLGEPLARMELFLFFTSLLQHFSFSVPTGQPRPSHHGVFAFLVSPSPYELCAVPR

Protein RecA = target: T1, Protein RecA (Mycobacterium tuberculosis, UniProt P9WHJ3); experiment: Fluorescence Cell-Free Homogeneous Dose Retest to Identify Inhibitors of RecA-Intein Splicing Activity. [Related pubchem assays (depositor defined):AID2097, AID2223, AID489010, AID492950]; type: functional
T1 sequence (P9WHJ3 whole entry): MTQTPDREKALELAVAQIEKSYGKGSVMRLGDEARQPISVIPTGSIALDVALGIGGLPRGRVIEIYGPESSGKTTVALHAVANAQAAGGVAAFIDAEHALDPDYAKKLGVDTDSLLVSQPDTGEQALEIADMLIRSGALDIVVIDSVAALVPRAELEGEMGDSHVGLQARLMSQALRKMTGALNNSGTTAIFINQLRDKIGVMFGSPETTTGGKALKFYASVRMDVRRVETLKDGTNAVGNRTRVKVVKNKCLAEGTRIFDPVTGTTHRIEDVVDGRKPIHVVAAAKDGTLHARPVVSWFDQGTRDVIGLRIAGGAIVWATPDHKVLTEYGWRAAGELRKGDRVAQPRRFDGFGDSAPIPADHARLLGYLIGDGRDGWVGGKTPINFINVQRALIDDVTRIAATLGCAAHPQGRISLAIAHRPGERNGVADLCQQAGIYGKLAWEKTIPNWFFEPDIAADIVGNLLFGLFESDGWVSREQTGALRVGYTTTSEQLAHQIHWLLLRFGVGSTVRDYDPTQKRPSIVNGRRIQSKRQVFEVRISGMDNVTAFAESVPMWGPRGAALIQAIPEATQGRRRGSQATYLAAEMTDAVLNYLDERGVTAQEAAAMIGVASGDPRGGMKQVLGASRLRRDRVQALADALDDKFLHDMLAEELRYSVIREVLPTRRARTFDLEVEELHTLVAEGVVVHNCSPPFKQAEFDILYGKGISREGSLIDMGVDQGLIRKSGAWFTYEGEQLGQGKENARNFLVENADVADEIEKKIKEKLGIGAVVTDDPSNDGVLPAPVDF

[8] = target: T2, Heat shock factor protein 1 (Mus musculus, UniProt P38532); experiment: decrease of HSF1-responsive luciferase luminescence – cell-based, NIH3T3, dose retest, confirmation (AID 2382); type: functional;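 further: NIH3T3 fibroblasts with HSF1-driven luciferase reporter stressed by proteasome inhibitor MG132; luminescence from HSF1-driven luciferase expression after 8 hours of MG132 stress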
T2 sequence (P38532 whole entry): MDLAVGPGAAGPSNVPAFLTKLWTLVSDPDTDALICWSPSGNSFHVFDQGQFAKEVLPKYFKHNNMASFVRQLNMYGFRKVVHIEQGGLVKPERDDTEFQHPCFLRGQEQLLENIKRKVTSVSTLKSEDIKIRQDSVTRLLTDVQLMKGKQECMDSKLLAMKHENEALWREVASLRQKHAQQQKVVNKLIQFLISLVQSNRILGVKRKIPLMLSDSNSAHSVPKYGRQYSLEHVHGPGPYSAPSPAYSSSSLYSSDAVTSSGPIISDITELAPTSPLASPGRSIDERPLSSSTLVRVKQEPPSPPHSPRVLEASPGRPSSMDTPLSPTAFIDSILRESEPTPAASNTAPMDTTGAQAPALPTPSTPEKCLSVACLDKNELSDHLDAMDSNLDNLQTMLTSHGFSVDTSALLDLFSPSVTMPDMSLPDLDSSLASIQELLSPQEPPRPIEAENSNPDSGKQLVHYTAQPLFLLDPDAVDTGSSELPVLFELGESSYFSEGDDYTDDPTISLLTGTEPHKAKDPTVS

[9] = target: T3, Replicative DNA helicase DnaB (Mycobacterium tuberculosis, UniProt P9WMR3); experiment: DnaB intein splicing inhibitors, dose response, biochemical, cell-free fluorescence (AID 449749); type: functional
T3 sequence (P9WMR3 whole entry): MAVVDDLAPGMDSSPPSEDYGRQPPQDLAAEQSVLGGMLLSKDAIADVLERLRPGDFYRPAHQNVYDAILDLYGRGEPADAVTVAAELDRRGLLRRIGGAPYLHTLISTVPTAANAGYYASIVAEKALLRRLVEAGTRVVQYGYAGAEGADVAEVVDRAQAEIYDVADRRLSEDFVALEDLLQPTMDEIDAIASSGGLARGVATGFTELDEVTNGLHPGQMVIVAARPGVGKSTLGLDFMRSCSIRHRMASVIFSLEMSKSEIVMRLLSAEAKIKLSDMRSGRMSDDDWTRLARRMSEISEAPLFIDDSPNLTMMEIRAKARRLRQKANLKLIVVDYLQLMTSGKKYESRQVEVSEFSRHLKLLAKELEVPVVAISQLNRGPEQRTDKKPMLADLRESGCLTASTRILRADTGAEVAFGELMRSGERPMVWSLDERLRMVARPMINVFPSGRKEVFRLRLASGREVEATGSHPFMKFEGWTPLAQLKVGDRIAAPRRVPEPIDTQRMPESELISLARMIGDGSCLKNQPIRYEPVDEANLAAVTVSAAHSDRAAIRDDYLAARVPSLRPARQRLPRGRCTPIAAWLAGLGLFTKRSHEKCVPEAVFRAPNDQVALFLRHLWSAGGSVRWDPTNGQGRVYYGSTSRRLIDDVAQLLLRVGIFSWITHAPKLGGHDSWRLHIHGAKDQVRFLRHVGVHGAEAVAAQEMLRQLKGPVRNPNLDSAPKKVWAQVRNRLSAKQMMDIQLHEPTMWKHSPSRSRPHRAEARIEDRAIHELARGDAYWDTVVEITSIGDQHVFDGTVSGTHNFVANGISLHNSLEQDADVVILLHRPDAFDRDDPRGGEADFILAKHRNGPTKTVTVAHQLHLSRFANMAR

[10] = target: FAD-linked sulfhydryl oxidase ALR (Homo sapiens, UniProt P55789); experiment: ALR-catalysed DTT oxidation blockers – biochemical, H2O2 detection, luminescence, cherry-pick, dose response (AID 493248)
Chain of FAD-linked sulfhydryl oxidase ALR (P55789 whole entry): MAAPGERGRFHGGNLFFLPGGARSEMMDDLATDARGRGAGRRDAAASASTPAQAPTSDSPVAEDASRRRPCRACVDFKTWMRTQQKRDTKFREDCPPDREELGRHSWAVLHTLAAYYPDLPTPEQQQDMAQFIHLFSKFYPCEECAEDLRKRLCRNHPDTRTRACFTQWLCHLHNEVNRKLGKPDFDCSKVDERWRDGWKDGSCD

cells = type: functional

Chain of Induced myeloid leukemia cell differentiation protein Mcl-1 (Q07820 whole entry): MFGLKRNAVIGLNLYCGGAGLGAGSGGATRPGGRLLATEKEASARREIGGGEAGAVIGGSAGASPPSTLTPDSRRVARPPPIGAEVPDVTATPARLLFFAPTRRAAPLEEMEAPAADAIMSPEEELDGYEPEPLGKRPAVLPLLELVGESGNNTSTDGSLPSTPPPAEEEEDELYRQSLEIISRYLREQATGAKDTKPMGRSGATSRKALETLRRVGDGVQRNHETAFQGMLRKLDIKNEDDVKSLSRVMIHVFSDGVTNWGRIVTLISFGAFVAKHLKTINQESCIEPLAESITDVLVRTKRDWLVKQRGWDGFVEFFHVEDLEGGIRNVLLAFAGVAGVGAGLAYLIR

## Cc1ccccc1NC(=O)COc1cccc2c1CCNC2=O
H9c2
  IC50: 13.9 µM (active)

## O=C(O)CCc1nc(-c2cccs2)no1
[1]
  IC50: 17.6 µM (not active)

## COc1cc(-c2cc(C(=O)OCC(=O)NC3CC3)c3ccccc3n2)cc(OC)c1OC
H9c2
  IC50: > 79 µM (inactive)

## C=C(C)COc1ccc(-c2nc(N)ncc2-c2ccc(Br)cc2)c(O)c1
[2]
  AC50: 5.37 µM (active)
[3]
  CC50: 15.7 µM (active)

## C=C(C)CN=C(S)NNC(=O)CCn1c2ccc(Cl)cc2c2cc(Cl)ccc21
[4]
  EC50: > 120 µM (not active)
Streptococcus
  EC50: 8.01 µM (active)
[5]
  EC50: > 120 µM (not active)
[2]
  AC50: 1.44 µM (active)
[6]
  EC50: > 120 µM (not active)
[7]
  EC50: 2.84 µM (active)

## O=C(Cn1[nH]c(=O)c2ccccc2c1=O)NC1CCN(Cc2ccccc2)CC1
H9c2
  IC50: > 79 µM (inactive)

## COC(=O)C1CCN(C(=O)c2cc(-c3ccc(Cl)s3)nc3ccccc23)CC1
INS1
  AC50: 3.98 µM (active)

## CN(C)c1ccc(NC(=O)c2ccc3[nH]cnc3c2)cc1
Large T antigen
  IC50: 6.99 µM (active)

## C=CCNC(S)=NNC(=O)c1cc(O)ccc1O
Large T antigen
  IC50: > 100 µM (active)

## CNc1nc2cc([N+](=O)[O-])c([N+](=O)[O-])cc2nc1NC
INS1
  AC50: 0.32 µM (active)

## c1ccc(CN2CCC(Nc3nc(-c4cccs4)nc4ccccc34)CC2)cc1
[2]
  AC50: 4.2 µM (active)

## Cc1ccccc1NP(=O)(Oc1ccccc1F)Oc1ccccc1F
H9c2
  IC50: > 79 µM (inactive)

## COc1ccccc1NC(=O)c1cc(-c2ccc(OC)c(OC)c2)nc2ccccc12
H9c2
  IC50: > 79 µM (inactive)

## COc1ccc(/C=N/NC(=O)c2cc[nH]n2)cc1COc1ccc(Cl)cc1
Cytochrome P450 2D6
  AC50: 25.1 µM (inconclusive)
H9c2
  IC50: > 79 µM (inactive)

## CCn1c(SCC(=O)Nc2ccc(OC)cc2)nc2nc3c(cc2c1=O)CCCC3
INS1
  AC50: 38.7 µM (active)

## Cc1ccc(C(C[N+](=O)[O-])n2nc(C)cc2C)cc1 (centres undefined)
[2]
  AC50: 13 µM (active)

## CCN(CC)c1ccc(C2C(C(=O)OC(C)C)C(=O)CC(C)(O)C2C(=O)OC(C)C)cc1 (centres undefined)
H9c2
  IC50: > 79 µM (inactive)

## CCOc1ccc(N=Nc2c(N)n[nH]c2O)cc1
Protein RecA
  EC50: 3.85 µM (active)
[8]
  EC50: > 195 µM (not active)
[9]
  AC50: 15.3 µM (active)

## O=C(O)CCC(=O)Nc1ccc(SSc2ccc(NC(=O)CCC(=O)O)cc2)cc1
Large T antigen
  IC50: 5.39 µM (active)

## NNC(=O)c1cc(-c2ccccc2)sc1N
Large T antigen
  IC50: 17.2 µM (active)
[10]
  AC50: 8.45 µM (active)

## O=C(Nc1ccc(Cl)c(Cl)c1)N1CCSC1c1ccco1 (centres undefined)
INS1
  AC50: 11.8 µM (active)

## CSc1nc(=S)n(-c2ccc([N+](=O)[O-])cc2)c(C)c1C(C)=O
Protein RecA
  EC50: 12.1 µM (active)
[9]
  AC50: 40.3 µM (active)

## COc1cc(NC(=O)C/C(C)=N/NC(=O)c2cccs2)c(OC)cc1Cl
cells
  IC50: 2.79 µM (active)

## COCCn1/c(=N/C(=O)c2nc3ccccc3s2)sc2cc(S(C)(=O)=O)ccc21
H9c2
  IC50: > 79 µM (inactive)

## CC(C)c1n[nH]c2c1C(c1cccnc1)C(C#N)=C(N)O2 (centres undefined)
Protein RecA
  EC50: 1.81 µM (inconclusive)
[9]
  AC50: 1.78 µM (active)

## N#Cc1c(-c2ccco2)cc(-c2cccnc2)nc1N
H9c2
  IC50: > 79 µM (inactive)

## CCCc1n[nH]c(O)c1C(c1ccc(Br)cc1)C(C#N)C#N (centres undefined)
Protein RecA
  EC50: 4.06 µM (active)
[10]
  AC50: 2.24 µM (active)
[9]
  AC50: 5.5 µM (active)

## O=C(Nc1ccc(O)cc1)/C(=C\c1cccs1)NC(=O)c1ccccc1
Large T antigen
  IC50: 23 µM (active)

## Cc1ccc2[nH]c3nc(N/N=C/c4cccc(O)c4)nnc3c2c1
[2]
  AC50: < 0.16 µM (active)

## COc1ccc(-c2ccc3c(n2)sc2c(=O)[nH]c(=O)[nH]c23)cc1OC
[1]
  IC50: 1.76 µM (active)

## CN(C)c1ccc(C(CNC(=O)c2ccc(F)cc2)c2c[nH]c3ccccc23)cc1 (centres undefined)
[1]
  IC50: 3.08 µM (not active)

## O=C(COC(=O)CCc1c[nH]c2ccccc12)NCc1ccc2c(c1)OCO2
cells
  IC50: 11.3 µM (active)

## O=C(Oc1ccc(N(Cc2cccs2)C2=NS(=O)(=O)c3ccccc32)cc1)c1ccccc1Cl
H9c2
  IC50: 23.2 µM (active)

## Cc1ccc(Sc2c(C)[nH]n(C(C)(C)C)c2=O)cc1
Protein RecA
  EC50: 1.47 µM (active)
[9]
  AC50: 30 µM (active)

Source: ChEMBL document CHEMBL1201862, “PubChem BioAssay data set” (2004)
